Experimental data published in the supplement of paper PMC10307832.

Tests used:
Experiment in all cases: relative viability (nuclei count vs DMSO), 5 days (fraction); higher = more cells survive
[1] = compound: O=C(O)c1ccc2c(c1)nc(Nc1cccc(Cl)c1)c1ccncc12 [Silmitasertib] + Nc1nc2[nH]cc(CCc3ccc(C(=O)N[C@@H](CCC(=O)O)C(=O)O)cc3)c2c(=O)[nH]1 [Pemetrexed] (partner 0.2 µM)
In short: (§1)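 The day after seeding in 1536-well plates, lung cancer cell lines were treated by pin tool with a single drug, or with a fixed anchor-drug dose together with five library-drug doses (not always all listed) in √10 steps. After 5 days, a combined fix-and-stain solution (final 0.05% Triton X-100, 1% formaldehyde, 1 ug/ml Hoechst) was added. Nuclei counted on 4× images gave relative viability as treated counts over vehicle counts, reported as the median of duplicate plates.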

[2] = compound: O=C(O)c1ccc2c(c1)nc(Nc1cccc(Cl)c1)c1ccncc12 [Silmitasertib] + C[C@]1(O)C[C@@H](c2nc(-c3ccc4ccc(-c5ccccc5)nc4c3)c3c(N)nccn32)C1 [Linsitinib] (partner 1 µM)
In short: as §1

[3] = compound: O=C(O)c1ccc2c(c1)nc(Nc1cccc(Cl)c1)c1ccncc12 [Silmitasertib] + C[C@@H](Oc1cc(-c2cnn(C3CCNCC3)c2)cnc1N)c1c(Cl)ccc(F)c1Cl [Crizotinib] (partner 1 µM)
In short: as §1

[4] = compound: O=C(O)c1ccc2c(c1)nc(Nc1cccc(Cl)c1)c1ccncc12 [Silmitasertib] + CC(=O)Nc1cccc(-n2c(=O)n(C3CC3)c(=O)c3c(Nc4ccc(I)cc4F)n(C)c(=O)c(C)c32)c1 [Trametinib] (partner 0.02 µM)
In short: as §1

Silmitasertib + Olaparib = compound: O=C(O)c1ccc2c(c1)nc(Nc1cccc(Cl)c1)c1ccncc12 [Silmitasertib] + O=C(c1cc(Cc2n[nH]c(=O)c3ccccc23)ccc1F)N1CCN(C(=O)C2CC2)CC1 [Olaparib] (partner 8 µM)
In short: as §1

| Cell Line | relative viability ([1]; first compound 0.04 µM) | relative viability ([1]; first compound 0.4 µM) | relative viability ([1]; first compound 1.265 µM) | relative viability ([1]; first compound 4 µM) | relative viability ([2]; first compound 0.04 µM) | relative viability ([2]; first compound 0.4 µM) | relative viability ([2]; first compound 1.265 µM) | relative viability ([2]; first compound 4 µM) | relative viability ([3]; first compound 0.04 µM) | relative viability ([3]; first compound 0.4 µM) | relative viability ([3]; first compound 1.265 µM) | relative viability ([3]; first compound 4 µM) | relative viability ([4]; first compound 0.04 µM) | relative viability ([4]; first compound 0.4 µM) | relative viability ([4]; first compound 1.265 µM) | relative viability ([4]; first compound 4 µM) | relative viability (Silmitasertib + Olaparib; first compound 0.04 µM) | relative viability (Silmitasertib + Olaparib; first compound 0.4 µM) | relative viability (Silmitasertib + Olaparib; first compound 1.265 µM) | relative viability (Silmitasertib + Olaparib; first compound 4 µM) |
| --- | --- | --- | --- | --- | --- | --- | --- | --- | --- | --- | --- | --- | --- | --- | --- | --- | --- | --- | --- | --- |
| NCI-H322M | 0.666 | 0.536 | 0.595 | 0.482 | 0.868 | 0.809 | 0.62 | 0.453 | 0.878 | 0.662 | 0.511 | 0.281 | 0.61 | 0.5 | 0.47 | 0.553 | 0.7 | 0.608 | 0.456 | 0.39 |
| NCI-H358 | 0.186 | 0.164 | 0.18 | 0.131 | 0.902 | 0.799 | 0.585 | 0.607 | 0.616 | 0.47 | 0.493 | 0.407 | 0.163 | 0.127 | 0.145 | 0.143 | 0.696 | 0.396 | 0.483 | 0.36 |
| NCI-H441 | 0.289 | – | 0.245 | 0.281 | 0.455 | – | 0.389 | 0.35 | 0.814 | – | 0.787 | 0.6 | 0.562 | – | 0.313 | 0.231 | 0.604 | – | 0.647 | 0.341 |
| NCI-H460 | 0.0675 | 0.0541 | 0.0651 | 0.0575 | 0.779 | 0.84 | 0.782 | 0.899 | 0.91 | 0.866 | 0.755 | 0.865 | 0.201 | 0.196 | 0.131 | 0.0739 | 0.387 | 0.269 | 0.553 | 0.575 |
| NCI-H520 | 0.716 | 0.716 | 0.694 | 0.566 | 1.05 | 1.17 | 1.04 | 0.785 | 0.821 | 0.728 | 0.792 | 0.612 | 0.832 | 0.668 | 0.524 | 0.626 | 0.365 | 0.318 | 0.295 | 0.262 |
| NCI-H596 | 0.523 | 0.502 | 0.54 | 0.472 | 1.09 | 1.07 | 0.839 | 0.933 | 1.01 | 1.01 | 0.909 | 0.964 | 0.765 | 0.684 | 0.764 | 0.796 | 0.659 | 0.597 | 0.685 | 0.654 |
| NCI-H647 | 0.183 | 0.16 | 0.148 | 0.134 | 1.37 | 1.24 | 1.05 | 0.663 | 1.26 | 1.1 | 0.932 | 0.48 | 0.524 | 0.57 | 0.399 | 0.431 | 0.625 | 0.431 | 0.57 | 0.325 |
| NCI-H650 | 0.981 | 0.433 | 0.912 | 0.659 | 0.96 | 0.563 | 0.757 | 0.407 | 0.79 | 0.502 | 0.463 | 0.378 | 1.01 | 0.567 | 0.666 | 1.21 | 0.4 | 0.232 | 0.317 | 0.294 |
| NCI-H661 | 0.93 | 0.966 | 0.865 | 0.666 | 0.646 | – | 0.38 | 0.577 | 1.02 | 0.929 | – | 1.1 | 0.645 | 0.605 | 0.667 | 0.615 | 0.735 | 0.679 | 0.629 | 0.493 |
| NCI-H838 | 0.231 | 0.234 | 0.227 | 0.213 | 1.09 | – | 0.899 | 0.608 | 0.941 | – | 0.861 | 0.511 | 0.673 | 0.489 | 0.463 | 0.309 | 0.849 | 0.521 | 0.635 | 0.491 |
| NCI-H1355 | 1.04 | – | 1.01 | 0.852 | 0.857 | – | 0.768 | 0.796 | 1.07 | – | 1.1 | 1.07 | 0.454 | – | 0.393 | 0.367 | 0.727 | – | 0.698 | 0.615 |
| NCI-H1437 | 0.337 | 0.3 | 0.254 | 0.228 | 1.03 | – | 0.691 | 0.36 | 0.916 | – | 0.865 | 0.778 | 0.493 | 0.466 | 0.353 | 0.274 | 0.648 | 0.645 | 0.521 | 0.483 |
| NCI-H1651 | 0.625 | 0.38 | 0.247 | 0.665 | 0.944 | 1 | 0.901 | 0.942 | 0.88 | 0.727 | 0.834 | 0.924 | 0.881 | 0.714 | 0.84 | 0.848 | 0.171 | 0.139 | 0.184 | 0.186 |
| NCI-H1666 | 0.89 | 0.795 | 0.72 | 0.63 | 0.919 | 0.571 | 0.682 | 0.536 | 0.918 | 0.787 | 0.691 | 0.508 | 0.915 | 0.728 | 0.876 | 0.752 | 0.713 | 0.577 | 0.566 | 0.61 |
| NCI-H1734 | 0.443 | 0.336 | 0.423 | 0.386 | 0.884 | – | 0.801 | 0.929 | 0.628 | – | 0.606 | 0.655 | 0.737 | 0.664 | 0.63 | 0.581 | 0.607 | 0.373 | 0.583 | 0.549 |
| NCI-H1755 | 0.422 | 0.489 | 0.383 | 0.386 | 1.02 | 1.04 | 1.06 | 1.13 | 0.89 | 0.837 | 0.929 | 0.924 | 0.74 | 0.779 | 0.826 | 0.864 | 0.892 | 0.783 | 0.858 | 1.01 |
| NCI-H1792 | 0.772 | 0.78 | 0.78 | 0.331 | 0.531 | 0.439 | 0.48 | 0.539 | 0.948 | 0.764 | 0.735 | 0.882 | 0.407 | 0.478 | 0.432 | 0.562 | 0.308 | 0.421 | 0.431 | 0.281 |
